Holding throughout (experiment): NCI anticancer screen, dose series, 48 h
The subject of test [1] is UACC-257 melanoma.
Test [2] deals with MOLT-4 leukemia.
For test [3], the system named is HL-60(TB) leukemia.
The test system of test [4] is TK-10 renal.
The subject of test [5] is EKVX NSCLC.
Test [6] relates to ACHN renal.
The subject of test [7] is RPMI-8226 leukemia.
The subject of test [8] is CAKI-1 renal.
In test [9] the test system is U251 CNS.
The subject of test [10] is CCRF-CEM leukemia.

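Five compound concentrations were applied to cells in 96-well plates for 48 hours; endpoints were derived by simple linear interpolation of the resulting dose-response curve. GI50 = concentration required for 50% inhibition of growth. TGI denotes the concentration required for complete inhibition of growth.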

As for `Cc1noc2c1-c1ccccc1C(c1ccc(Cl)cc1)=N[C@H]2CC(N)=O`, the GI50 in test [1] is 7.4 µM; in test [2] it was 7.71 µM; in [3], 0.398 µM; in test [4], 0.486 µM; in test [5], 14 µM; in test [6], 6.37 µM. Also, the GI50 was 0.362 µM in [7], 0.368 µM in test [8], 20 µM in [9] and 14.8 µM in [10]. The TGI was > 100 µM in test [1]; > 100 µM in [2]; > 33.8 µM in test [3]; > 100 µM in test [4]; > 100 µM in [5]; > 100 µM in test [6]. Also, the TGI is 10.7 µM in [7], > 100 µM in [8], > 100 µM in test [9] and > 100 µM in test [10].
For `COc1cc(/C=N\O[Si](C)(C)C(C)(C)C)ccc1O[Si](C)(C)C(C)(C)C`, the TGI in [1], in test [2], in test [3], in test [4], in test [5] and in test [6] was > 100 µM each time. The TGI is > 100 µM in test [7], > 100 µM in test [8], 71.5 µM in [9] and > 100 µM in test [10].
In the case of `COc1cc(/C=C/C(=O)C(C(=O)/C=C/c2ccc(OC(=O)CCNC34CC5CC(CC(C5)C3)C4)c(OC)c2)C(=O)CCNC23CC4CC(CC(C4)C2)C3)ccc1OC(=O)CCNC12CC3CC(CC(C3)C1)C2` (stereo not drawn), the GI50 in test [1] was 3.45 µM; in [3], 1.95 µM; in [4] it was 3.77 µM; in test [5], 2.95 µM; in test [6], 4.03 µM; in test [7], 2.12 µM. The GI50 in [8] was 5.72 µM; in test [9] it was 3.25 µM; in test [10], 1.65 µM. The TGI in [1] is 14 µM; in test [3], 4.36 µM; in [4], 18.7 µM; in test [5], 8.97 µM; in test [6], 34.1 µM; in test [7] it was 5.02 µM. Moreover, the TGI in test [8] is > 100 µM; in test [9], 11.3 µM; in test [10] it was 4.12 µM.
Take `c1ccc2c(c1)c1ccccc1c1ccccc21`: the GI50 is > 100 µM in test [1]; 77.3 µM in [2]; > 100 µM in test [3]; > 100 µM in test [4]; > 100 µM in test [6]; > 100 µM in test [7]. Further, the GI50 in [8], in [9] and in [10] was > 100 µM in each case. The TGI in [1], in test [2], in [3], in [4], in [6] and in test [7] was > 100 µM in each case. Further, the TGI in test [8], in [9] and in test [10] was > 100 µM throughout.
Consider `Nc1c(C(=O)Nc2ccccc2Cl)sc2nc3c(cc12)C(=O)CCC3`, for which the GI50 is 1.62 µM in [1]; > 100 µM in test [2]; 3.72 µM in test [3]; 78.6 µM in test [4]; 15.9 µM in test [6]; > 100 µM in test [7]. In addition, the results for the GI50 in test [8], in test [9] and in [10] were 1.84 µM, 4.18 µM and > 100 µM, respectively. Further, the TGI in test [1], in test [2], in [3], in test [4], in [6] and in [7] was > 100 µM each time. The TGI in [8], in [9] and in [10] was > 100 µM each time.
For the compound `Cn1cc(-c2csc(-c3cn(C)c4ccc(F)cc34)n2)c2cnccc21`, the GI50 in test [1] was 1.8 µM; in test [3] it was 1.93 µM; in [4], 1.56 µM; in test [5] it was 1.87 µM; in test [6], 1.84 µM; in [7], 1.98 µM. For the same compound, the GI50 was 1.77 µM in test [8], 1.8 µM in [9] and 1.96 µM in [10]. Besides, the TGI in test [1] came out at 3.26 µM; in test [3] it was 3.87 µM; in test [4], 2.98 µM; in test [5], 3.7 µM; in test [6], 3.26 µM; in test [7], 4.14 µM. Also, the results for the TGI in test [8], in test [9] and in test [10] were 3.19 µM, 3.23 µM and 4.13 µM, respectively.
For `Cc1ccc2occ/c(=N\Nc3ccccc3)c2c1`, the TGI in test [1] is > 100 µM; in test [3], > 100 µM; in test [4], > 100 µM; in test [5], 98 µM; in test [6] it was > 100 µM; in test [7], > 100 µM. For the same compound, the TGI in test [8], in test [9] and in test [10] was > 100 µM throughout.
For the compound `CC1(C)N=C(N)N=C(N)N1c1cccc(OCCOc2cccc([N+](=O)[O-])c2)c1`, the GI50 in test [1] was 4.32 µM; in [2], 2.45 µM; in test [3], 1.18 µM; in test [4] it was 66 µM; in test [6] it was > 100 µM; in test [7], 4.01 µM. In addition, the GI50 in [8] is > 100 µM; in test [9] it was 0.808 µM; in test [10] it was 1.23 µM. Also, the TGI was > 100 µM in test [1]; > 100 µM in [2]; > 77.8 µM in test [3]; > 100 µM in test [4]; > 100 µM in test [6]; > 100 µM in test [7]. Besides, the TGI in [8], in [9] and in test [10] was > 100 µM throughout.
On to `C=C1C(=O)OC2C1CC(OC(C)=O)/C(C)=C/CCC1(C)OC21` (stereo not drawn), for which the TGI in [1], in [2], in [3], in test [5], in test [6] and in test [7] was > 100 µM throughout. The TGI in [8], in [9] and in test [10] was > 100 µM each time.

These data come from PubChem BioAssay (NCI).
